Assays:
CYP11B = biological target: T1, CYP11B (Rattus norvegicus, UniProt P15393+P30099); test: Inhibition of Sprague-Dawley rat adrenal mitochondrial CYP11B assessed as decrease in conversion of 11-deoxycortisol to cortisol at 100 nM incubated for 60 mins by ELISA relative to control; format: protein assay; details: adrenal mitochondria, probe 11-deoxycortisol
T1 sequence (P30099 whole entry): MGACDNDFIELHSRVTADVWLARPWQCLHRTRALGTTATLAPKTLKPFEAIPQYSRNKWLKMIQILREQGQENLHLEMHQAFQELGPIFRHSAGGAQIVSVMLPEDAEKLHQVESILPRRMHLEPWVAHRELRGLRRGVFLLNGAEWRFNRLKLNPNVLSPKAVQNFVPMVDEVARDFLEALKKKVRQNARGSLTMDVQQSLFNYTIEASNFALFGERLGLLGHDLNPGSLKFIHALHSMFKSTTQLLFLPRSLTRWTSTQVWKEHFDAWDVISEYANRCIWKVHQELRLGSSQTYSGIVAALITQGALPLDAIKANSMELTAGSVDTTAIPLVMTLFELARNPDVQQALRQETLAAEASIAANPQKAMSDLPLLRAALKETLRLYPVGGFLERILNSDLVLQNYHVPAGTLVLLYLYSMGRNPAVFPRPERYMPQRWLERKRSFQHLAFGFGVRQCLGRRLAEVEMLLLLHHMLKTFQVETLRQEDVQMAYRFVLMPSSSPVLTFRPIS
T1 sequence (P15393 whole entry): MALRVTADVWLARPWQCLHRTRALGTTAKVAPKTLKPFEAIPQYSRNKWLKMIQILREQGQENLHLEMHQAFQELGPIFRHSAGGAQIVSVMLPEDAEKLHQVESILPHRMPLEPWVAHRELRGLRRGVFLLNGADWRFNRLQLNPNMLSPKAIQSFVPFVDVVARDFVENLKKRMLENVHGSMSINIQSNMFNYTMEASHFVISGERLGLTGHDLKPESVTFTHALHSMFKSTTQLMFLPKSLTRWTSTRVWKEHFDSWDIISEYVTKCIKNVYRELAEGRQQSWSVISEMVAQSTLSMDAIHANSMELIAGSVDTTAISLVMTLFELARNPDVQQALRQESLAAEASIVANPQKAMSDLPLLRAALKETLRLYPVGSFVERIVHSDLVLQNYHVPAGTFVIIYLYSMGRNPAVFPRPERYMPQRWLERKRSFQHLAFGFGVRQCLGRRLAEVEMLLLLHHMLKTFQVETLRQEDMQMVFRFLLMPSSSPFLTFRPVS

[1] = biological target: T2, CYP21 (steroid 21-hydroxylase) (Homo sapiens, UniProt P08686); test: Inhibition of human CYP21 transfected in HEK293 cells assessed as decrease in conversion of progesterone to 11-deoxycorticosterone preincubated for 5 hrs followed by progesterone addition measured after 20 hrs by ELISA; format: cell-based; design: concentration or dose not given beside the values; details: HEK293 cells transfected with human CYP21, probe progesterone
T2 sequence (P08686 whole entry): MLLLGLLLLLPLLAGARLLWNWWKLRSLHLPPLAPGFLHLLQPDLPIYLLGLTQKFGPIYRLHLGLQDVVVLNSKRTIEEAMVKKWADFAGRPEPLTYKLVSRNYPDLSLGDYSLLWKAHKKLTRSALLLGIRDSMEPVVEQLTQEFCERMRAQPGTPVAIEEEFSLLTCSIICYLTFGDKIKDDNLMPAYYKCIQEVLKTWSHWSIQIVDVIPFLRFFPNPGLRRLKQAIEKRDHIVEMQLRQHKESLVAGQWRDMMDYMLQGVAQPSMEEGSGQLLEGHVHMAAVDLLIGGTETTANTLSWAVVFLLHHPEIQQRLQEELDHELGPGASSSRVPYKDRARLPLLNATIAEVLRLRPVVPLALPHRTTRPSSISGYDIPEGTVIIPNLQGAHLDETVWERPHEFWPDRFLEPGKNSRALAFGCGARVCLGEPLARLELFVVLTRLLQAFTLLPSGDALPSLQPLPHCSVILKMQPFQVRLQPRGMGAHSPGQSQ

[2] = biological target: T3, Steroid 17-alpha-hydroxylase/17,20 lyase (Homo sapiens, UniProt P05093); test: Inhibition of CYP17 in human testicular microsomes using 17alpha-hydroxypregnenolone as substrate assessed as decrease in DHEA levels after 90 mins by ELISA; design: species or system Testis
T3 sequence (P05093 whole entry): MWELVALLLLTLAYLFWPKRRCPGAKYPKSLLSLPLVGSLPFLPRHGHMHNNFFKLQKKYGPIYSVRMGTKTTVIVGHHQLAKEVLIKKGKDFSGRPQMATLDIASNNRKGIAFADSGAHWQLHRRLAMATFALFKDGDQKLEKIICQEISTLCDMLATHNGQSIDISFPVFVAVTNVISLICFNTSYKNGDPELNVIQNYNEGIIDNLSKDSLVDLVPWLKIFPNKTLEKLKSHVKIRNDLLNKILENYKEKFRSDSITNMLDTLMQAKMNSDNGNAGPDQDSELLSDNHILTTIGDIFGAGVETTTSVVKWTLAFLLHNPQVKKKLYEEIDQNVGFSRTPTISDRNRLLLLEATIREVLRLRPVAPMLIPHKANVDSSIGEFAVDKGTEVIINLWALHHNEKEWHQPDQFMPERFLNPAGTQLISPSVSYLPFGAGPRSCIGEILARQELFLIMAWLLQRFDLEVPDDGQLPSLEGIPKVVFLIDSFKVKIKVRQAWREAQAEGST

[3] = biological target: T3, Steroid 17-alpha-hydroxylase/17,20 lyase; test: Inhibition of CYP17 in human testicular microsomes using 17alpha-hydroxypregnenolone as substrate assessed as decrease in DHEA levels at 10 nM after 90 mins by ELISA relative to control; design: species or system Testis; details: 1.5 h
[4] = Half life in human liver microsomes at 1 uM by LC-MS/MS analysis
[5] = Half life in rat liver microsomes at 1 uM by LC-MS/MS analysis
[6] = biological target: T3, Steroid 17-alpha-hydroxylase/17,20 lyase; test: Inhibition of CYP17 in human H295R cells assessed as decrease in testosterone levels after 24 hrs by ELISA; format: cell-based

Compound | inhibition at 1 h, 0.1 µM (CYP11B) | inhibition at 20 h [1] | IC50 [2] | inhibition at 0.01 µM [3] | half-life at 1 µM [4] | half-life at 1 µM [5] | IC50 [6]
CN1C(=O)C[C@@]2(C)C1=CC[C@@H]1[C@@H]2CC[C@]2(C)C(n3ccnc3)=CC[C@@H]12 | ≥ 50% | 10 to 50% | – | – | – | – | –
COC(=O)N[C@@H]1CC[C@@]2(C)C(=CC[C@@H]3[C@@H]2CC[C@]2(C)C(n4ccnc4)=CC[C@@H]32)C1 | < 32% | ≥ 50% | ≤ 11 nM | – | – | – | –
CC(=O)O[C@H]1CC[C@@]2(C)C(=CC[C@H]3C4=CC=C(c5cccnc5)[C@@]4(C)CC[C@@H]32)C1 | ≥ 50% | – | – | 1 to 50% | – | – | –
CN1C(=O)CC[C@@]2(C)C1=CC[C@@H]1[C@@H]2CC[C@]2(C)C(n3ccnc3)=CC[C@@H]12 | ≥ 50% | – | – | 50 to 80% | – | – | –
CN1C(=O)C[C@@]2(C)C1=CC[C@@H]1[C@@H]2CC[C@]2(C)C(c3cccnc3)=CC[C@@H]12 | ≥ 50% | ≥ 50% | ≤ 11 nM | – | – | – | –
CN1C(=O)CC[C@@]2(C)C1=CC[C@@H]1[C@@H]2CC[C@]2(C)C(n3cncc3C#N)=CC[C@@H]12 | < 32% | < 10% | – | – | – | – | –
CCOc1cncc(C2=CC[C@H]3[C@@H]4CC=C5N(C)C(=O)C[C@]5(C)[C@H]4CC[C@]23C)c1 | ≥ 50% | 10 to 50% | – | – | – | – | –
CN1C(=O)CC[C@@]2(C)C1=CC[C@@H]1[C@@H]2CC[C@]2(C)C(c3cncc(F)c3)=CC[C@@H]12 | ≥ 50% | 10 to 50% | – | – | – | – | –
COc1cncc(C2=CC[C@H]3[C@@H]4CCC5=CC(=O)N(C)CC[C@]5(C)[C@H]4CC[C@]23C)c1 | < 32% | – | ≤ 11 nM | 50 to 80% | 1 to 10 min | 1 to 10 min | –
COc1cncc(C2=CC[C@H]3[C@@H]4CC=C5N(C)C(=O)C[C@]5(C)[C@H]4CC[C@]23C)c1 | < 32% | ≥ 50% | ≤ 11 nM | – | 1 to 50 min | – | –
C[C@]12CCCCC1C(=O)C[C@@H]1[C@@H]2CC[C@]2(C)C(n3ccnc3)=CC[C@@H]12 (stereo not given in full) | < 32% | – | ≤ 11 nM | ≥ 80% | – | – | –
C[C@]12CC[C@@H](NC(=O)C3CC3)CC1=CC[C@@H]1[C@@H]2CC[C@]2(C)C(n3ccnc3)=CC[C@@H]12 | ≥ 50% | ≥ 50% | ≤ 11 nM | – | 1 to 50 min | – | –
C[C@]12CC[C@H](O)CC1=CC[C@@H]1[C@@H]2CC[C@]2(C)C(n3cncc3C#N)=CC[C@@H]12 | ≥ 50% | 10 to 50% | – | – | – | – | –
CCC(=O)N1CCC[C@@]2(C)C(CC[C@@H]3[C@@H]2CC[C@]2(C)C(c4cccnc4)=CC[C@@H]32)C1 (stereo not given in full) | ≥ 50% | 10 to 50% | ≤ 11 nM | – | – | – | –
CCC(=O)N1CCC2CC[C@@H]3[C@H](CC[C@]4(C)C(c5cccnc5)=CC[C@@H]34)[C@@]2(C)CC1 (stereo not given in full) | < 32% | 10 to 50% | ≤ 11 nM | – | – | – | –
Cc1ccncc1C1=CC[C@H]2[C@@H]3CC[C@H]4CC(=O)NCC[C@]4(C)[C@H]3CC[C@]12C | < 32% | 10 to 50% | – | – | – | – | ≤ 15 nM
CCCC(=O)N1CCC2CC[C@@H]3[C@H](CC[C@]4(C)C(n5ccnc5)=CC[C@@H]34)[C@@]2(C)CC1 (stereo not given in full) | < 32% | ≥ 50% | ≤ 11 nM | – | – | – | –
COc1cncc(C2=CC[C@H]3[C@@H]4CC=C5N(C)C(=O)CCC[C@]5(C)[C@H]4CC[C@]23C)c1 | ≥ 50% | – | – | ≥ 80% | 1 to 50 min | – | –
CN1CC[C@@]2(C)C(=CC1=O)CC[C@@H]1[C@@H]2CC[C@]2(C)C(n3ccnc3)=CC[C@@H]12 | ≥ 50% | – | ≤ 11 nM | ≥ 80% | 1 to 50 min | 10 to 60 min | –
CN1C(=O)CCC[C@@]2(C)C1=CC[C@@H]1[C@@H]2CC[C@]2(C)C(c3cccnc3)=CC[C@@H]12 | ≥ 50% | – | ≤ 11 nM | ≥ 80% | 1 to 50 min | – | –
Cc1cncc(C2=CC[C@H]3[C@@H]4CC=C5N(C)C(=O)CCC[C@]5(C)[C@H]4CC[C@]23C)c1 | ≥ 50% | – | – | 50 to 80% | – | – | –
CN1CC=C2CC[C@@H]3[C@H](CC[C@]4(C)C(n5ccnc5)=CC[C@@H]34)[C@@]2(C)CC1 | < 32% | – | – | 1 to 50% | – | – | –
CC(=O)N[C@@H]1CC[C@@]2(C)C(=CC[C@H]3C4=CC=C(n5ccnc5)[C@@]4(C)CC[C@@H]32)C1 | < 32% | 10 to 50% | – | – | – | – | –
CC(=O)N1CCC[C@@]2(C)[C@@H](CC[C@@H]3[C@@H]2CC[C@]2(C)C(n4ccnc4)=CC[C@@H]32)C1 | ≥ 50% | 10 to 50% | – | – | – | – | –
COc1cncc(C2CC[C@H]3[C@@H]4CCC5=CC(=O)NCC[C@]5(C)[C@H]4CC[C@]23C)c1 (stereo not given in full) | < 32% | – | ≤ 11 nM | ≥ 80% | 10 to 60 min | 10 to 60 min | –
Cc1cncc(C2=CC[C@H]3[C@@H]4CC=C5N(C)C(=O)C[C@]5(C)[C@H]4CC[C@]23C)c1 | < 32% | 10 to 50% | – | – | – | – | –
